The assay deals with BL6 mouse melanoma cells. Conditions: GLA doses above 7 µg/ml, single dose, 7 days, plateau of the curve. As to the method:
Thus each culture set comprised 13 separate experiments. […] Each set of dosages was duplicated for both cell lines. Thus, a total of 280 separate cultures were used for these determinations. For statistical treatment an average value of each duplicate was used as n = I. • (i) Growth Curves Protocol: The cells were seeded in a standard growth medium (McCoys 5A medium) from stock cultures into Greiner 50 ml plastic flasks at subconfluent densities ranging from I x 10^5 cells/flask.
These cultures flasks were incubated in a humidified atmosphere of 5% C02, 95% air at 37°C for 7 days. After this period cell counts and viabilities were determined, the latter by trypan blue dye exclusion.
Data Reduction and Statistical Analyses: Using the values of cell counts obtained as described above, the difference of each cell count from its control was expressed as a perecentage of the control. As the growth curves were repeated several times for each dose for both normal and cancer cells, the mean value and standard error was determined for each dose. […] For the purpose of presentation these percentage differences are expressed as the percentage reduction of growth rate (-GR%).

In the case of `CCCCC/C=C\C/C=C\C/C=C\CCCCC(=O)O` [GLA, gamma linolenic acid], the “percentage reduction of growth rate (-GR%)” value is “about 70%”.

Values taken from patent publication EP0106571A2, “Prophylactic substance or composition” (priority 1982, dated 1984).
